Holding throughout (assay type): in vivo
Data set [1] deals with Echinochloa oryzacola Vasing. As to the kind of experiment: Test Example 2: herbicidal activity, application during weed generation in submerged conditions. The following applies: Eighteenth Table. The procedure, abridged:
(§1)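 Paddy-type pot test: flooded soil, 4 cm depth, greenhouse 25–30 °C. Emulsion formulation diluted in water, applied to water surface at 1–2 leaf stage; rate expressed as g/ha. Read-out at 3 wk, 0–5 score.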

The next data set deals with Monochoria vaginalis. Described as above. The conditions noted are these: Eighteenth Table. The procedure, abridged: as §1
In another data set the test system is Scirpus juncoides. The description is as above. The following applies: Eighteenth Table. The procedure, abridged: as §1
The test system of data set [2] is Beta vulgaris ssp. vulgaris. As to the kind of experiment: Test Example 4: effect on crop by application to foliage (diluvial soil, plastic box). The conditions noted are these: for f (Beta vulgaris ssp. vulgaris) effect on crop: application to foliage, application herbicide amount 320 g/ha; for f: Application herbicide amount 320 g/ha, effect on crop. The procedure, abridged:
(§2)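 Read-out is a 0–5 visual grade of herbicidal ratio (5: ≥90%, almost withered; 0: ≤5%) taken three weeks after treatment. Compound was applied as a diluted emulsion to stem and leaf parts of 14-day greenhouse-grown plants (25° C. to 30° C.) at rates expressed as g/ha.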

In the next data set the test system is Brassica campestris L. The data set is described as above. The following applies: for g (Brassica campestris L.) effect on crop: application to foliage, application herbicide amount 320 g/ha; for g: Application herbicide amount 320 g/ha, effect on crop. The procedure, abridged: as §2
Another data set deals with Glycine max. The description is as above. The conditions noted are these: for c (Glycine max) effect on crop: application to foliage, application herbicide amount 320 g/ha; for c: Application herbicide amount 320 g/ha, effect on crop. The procedure, abridged: as §2
The subject of a further data set is Triticum aestivum. Described as above. The following applies: for e (Triticum aestivum) effect on crop: application to foliage, application herbicide amount 320 g/ha; for e: Application herbicide amount 320 g/ha, effect on crop. The essentials: as §2
In the next data set the test system is Zea mays. The data set is described as above. The following applies: for b (Zea mays) effect on crop: application to foliage, application herbicide amount 320 g/ha; for b: Application herbicide amount 320 g/ha, effect on crop. The essentials:
as §2

In data set [3] the test system is directly sowed Oryza sativa. The data set is described as above. The conditions noted are these: for d (directly sowed Oryza sativa) effect on crop: application to foliage, application herbicide amount 320 g/ha; for d: Application herbicide amount 320 g/ha, effect on crop. The procedure, abridged: as §2
The mark [4] stands for this setting: application herbicide amount 320 g/ha.
[5] abbreviates: application herbicide amount 280 g/ha.

For the compound `Cc1nnc(NC(=O)c2ccc(C(F)(F)F)n3c(C[S+]([O-])CC(F)(F)F)nnc23)o1` (stereo not drawn) [1-038], the “A (Echinochloa oryzicola Vasing.) herbicidal ratio grade” value in data set [1] (setting [4]) was 1 (Herbicidal ratio of 5% or more and less than 20%). The “C (Monochoria vaginalis) herbicidal ratio grade” value in the data set on Monochoria vaginalis (setting [4]) is recorded as 0 (Herbicidal ratio of 5% or less (almost no effect)). Besides, the “B (Scirpus juncoides) herbicidal ratio grade” value in the data set on Scirpus juncoides (setting [4]) was 1 (Herbicidal ratio of 5% or more and less than 20%). The “f (Beta vulgaris ssp. vulgaris) effect on crop” value in [2] is 5 (Herbicidal ratio of 90% or more (almost completely withered)). Besides, the “g (Brassica campestris L.) effect on crop” value in the data set on Brassica campestris L. was 4 (Herbicidal ratio of 70% or more and less than 90%). Further, the “c (Glycine max) effect on crop” value with Glycine max is recorded as 0 (Herbicidal ratio of 5% or less (almost no effect)). Also, in the data set on Triticum aestivum, the “e (Triticum aestivum) effect on crop” value is 1 (Herbicidal ratio of 5% or more and less than 20%). The “b (Zea mays) effect on crop” value with Zea mays is 0 (Herbicidal ratio of 5% or less (almost no effect)). Further, the “d (directly sowed Oryza sativa) effect on crop” value in data set [3] was 4 (Herbicidal ratio of 70% or more and less than 90%).
With `Cc1nnc(NC(=O)c2ccc(C(F)(F)F)n3c(-c4ccc(Cl)cc4)nnc23)o1` [1-017], the “A (Echinochloa oryzicola Vasing.) herbicidal ratio grade” value in data set [1] (setting [4]) was 2 (Herbicidal ratio of 20% or more and less than 40%). Further, in the data set with Monochoria vaginalis (setting [4]), the “C (Monochoria vaginalis) herbicidal ratio grade” value is 0 (Herbicidal ratio of 5% or less (almost no effect)). For the same compound, in the data set on Scirpus juncoides (setting [4]), the “B (Scirpus juncoides) herbicidal ratio grade” value is 2 (Herbicidal ratio of 20% or more and less than 40%). Further, the “f (Beta vulgaris ssp. vulgaris) effect on crop” value in data set [2] is on record as 5 (Herbicidal ratio of 90% or more (almost completely withered)). Besides, the “g (Brassica campestris L.) effect on crop” value in the data set with Brassica campestris L. is 3 (Herbicidal ratio of 40% or more and less than 70%). For the same compound, in the data set with Glycine max, the “c (Glycine max) effect on crop” value is 0 (Herbicidal ratio of 5% or less (almost no effect)). Further, the “e (Triticum aestivum) effect on crop” value with Triticum aestivum is 0 (Herbicidal ratio of 5% or less (almost no effect)). For the same compound, the “b (Zea mays) effect on crop” value in the data set with Zea mays is listed as 0 (Herbicidal ratio of 5% or less (almost no effect)). Further, the “d (directly sowed Oryza sativa) effect on crop” value in [3] was 3 (Herbicidal ratio of 40% or more and less than 70%).
Regarding `Cc1nnc(NC(=O)c2ccc(C(F)(F)F)n3c(Br)nnc23)o1` [1-014], the “A (Echinochloa oryzicola Vasing.) herbicidal ratio grade” value in data set [1] (setting [5]) was 2 (Herbicidal ratio of 20% or more and less than 40%). Moreover, the “C (Monochoria vaginalis) herbicidal ratio grade” value with Monochoria vaginalis (setting [5]) was 0 (Herbicidal ratio of 5% or less (almost no effect)). Further, the “B (Scirpus juncoides) herbicidal ratio grade” value in the data set on Scirpus juncoides (setting [5]) is 3 (Herbicidal ratio of 40% or more and less than 70%). The “f (Beta vulgaris ssp. vulgaris) effect on crop” value in data set [2] is 5 (Herbicidal ratio of 90% or more (almost completely withered)). Also, the “g (Brassica campestris L.) effect on crop” value with Brassica campestris L. is 2 (Herbicidal ratio of 20% or more and less than 40%). Also, the “c (Glycine max) effect on crop” value in the data set on Glycine max is given as 0 (Herbicidal ratio of 5% or less (almost no effect)). Also, the “e (Triticum aestivum) effect on crop” value with Triticum aestivum is 1 (Herbicidal ratio of 5% or more and less than 20%). Besides, in the data set on Zea mays, the “b (Zea mays) effect on crop” value is 1 (Herbicidal ratio of 5% or more and less than 20%). The “d (directly sowed Oryza sativa) effect on crop” value in data set [3] is 3 (Herbicidal ratio of 40% or more and less than 70%).
On to `Cc1nnc(NC(=O)c2ccc(C(F)(F)F)n3c(-c4cncs4)nnc23)o1` [1-058], for which the “A (Echinochloa oryzicola Vasing.) herbicidal ratio grade” value in [1] (setting [4]) is 4 (Herbicidal ratio of 70% or more and less than 90%). The “C (Monochoria vaginalis) herbicidal ratio grade” value in the data set on Monochoria vaginalis (setting [4]) is 4 (Herbicidal ratio of 70% or more and less than 90%). Moreover, the “B (Scirpus juncoides) herbicidal ratio grade” value with Scirpus juncoides (setting [4]) was 5 (Herbicidal ratio of 90% or more (almost completely withered)). Further, in data set [2], the f was 5 (Herbicidal ratio of 90% or more (almost completely withered)). Also, the g in the data set on Brassica campestris L. was 4 (Herbicidal ratio of 70% or more and less than 90%). For the same compound, in the data set on Glycine max, the c is 4 (Herbicidal ratio of 70% or more and less than 90%). Further, the e in the data set with Triticum aestivum was 1 (Herbicidal ratio of 5% or more and less than 20%). Besides, in the data set on Zea mays, the b was 5 (Herbicidal ratio of 90% or more (almost completely withered)). The d in data set [3] was 4 (Herbicidal ratio of 70% or more and less than 90%).
On to `COc1cccc(Nc2nnc3c(C(=O)Nc4nnc(C)o4)ccc(C(F)(F)F)n23)n1` [1-102], for which the “A (Echinochloa oryzicola Vasing.) herbicidal ratio grade” value in data set [1] (setting [4]) was 1 (Herbicidal ratio of 5% or more and less than 20%). The “C (Monochoria vaginalis) herbicidal ratio grade” value in the data set with Monochoria vaginalis (setting [4]) was 1 (Herbicidal ratio of 5% or more and less than 20%). For the same compound, the “B (Scirpus juncoides) herbicidal ratio grade” value with Scirpus juncoides (setting [4]) was 1 (Herbicidal ratio of 5% or more and less than 20%). In addition, the f in data set [2] was 4 (Herbicidal ratio of 70% or more and less than 90%). Besides, the g in the data set with Brassica campestris L. was 2 (Herbicidal ratio of 20% or more and less than 40%). Besides, in the data set with Glycine max, the c is 0 (Herbicidal ratio of 5% or less (almost no effect)). For the same compound, in the data set on Triticum aestivum, the e is 0 (Herbicidal ratio of 5% or less (almost no effect)). Besides, in the data set on Zea mays, the b is 0 (Herbicidal ratio of 5% or less (almost no effect)). Moreover, the d in [3] was 1 (Herbicidal ratio of 5% or more and less than 20%).
Turning to `Cc1nnc(NC(=O)c2ccc(C(F)(F)F)n3c(-c4cccs4)nnc23)o1` [1-057], the “A (Echinochloa oryzicola Vasing.) herbicidal ratio grade” value in data set [1] (setting [4]) is 2 (Herbicidal ratio of 20% or more and less than 40%). Moreover, the “C (Monochoria vaginalis) herbicidal ratio grade” value with Monochoria vaginalis (setting [4]) was 3 (Herbicidal ratio of 40% or more and less than 70%). Moreover, in the data set with Scirpus juncoides (setting [4]), the “B (Scirpus juncoides) herbicidal ratio grade” value is 3 (Herbicidal ratio of 40% or more and less than 70%). Besides, the f in [2] is on record as 5 (Herbicidal ratio of 90% or more (almost completely withered)). Further, in the data set on Brassica campestris L., the g was 3 (Herbicidal ratio of 40% or more and less than 70%). In the data set on Glycine max, the c is 1 (Herbicidal ratio of 5% or more and less than 20%). Further, the e in the data set on Triticum aestivum was 0 (Herbicidal ratio of 5% or less (almost no effect)). Moreover, in the data set with Zea mays, the b was 0 (Herbicidal ratio of 5% or less (almost no effect)). In addition, the d in data set [3] is 3 (Herbicidal ratio of 40% or more and less than 70%).
Turning to `CSc1nnc2c(C(=O)Nc3nnc(C)o3)ccc(C(F)(F)F)n12` [1-018, N-(5-Methyl-1,3,4-oxadiazol-2-yl)-3-(methylthio)-5-(trifluoromethyl)-[1,2,4]triazol o[4,3-a]pyridine-8-carboxamide], the “A (Echinochloa oryzicola Vasing.) herbicidal ratio grade” value in data set [1] (setting [4]) is reported as 0 (Herbicidal ratio of 5% or less (almost no effect)). In addition, in the data set with Monochoria vaginalis (setting [4]), the “C (Monochoria vaginalis) herbicidal ratio grade” value was 0 (Herbicidal ratio of 5% or less (almost no effect)). Further, the “B (Scirpus juncoides) herbicidal ratio grade” value in the data set with Scirpus juncoides (setting [4]) is 2 (Herbicidal ratio of 20% or more and less than 40%). Besides, the “f (Beta vulgaris ssp. vulgaris) effect on crop” value in data set [2] was 1 (Herbicidal ratio of 5% or more and less than 20%). In addition, the “g (Brassica campestris L.) effect on crop” value in the data set with Brassica campestris L. is on record as 0 (Herbicidal ratio of 5% or less (almost no effect)). The “c (Glycine max) effect on crop” value in the data set with Glycine max is given as 0 (Herbicidal ratio of 5% or less (almost no effect)). Moreover, the “e (Triticum aestivum) effect on crop” value in the data set with Triticum aestivum was 0 (Herbicidal ratio of 5% or less (almost no effect)). Further, in the data set on Zea mays, the “b (Zea mays) effect on crop” value is 0 (Herbicidal ratio of 5% or less (almost no effect)). The “d (directly sowed Oryza sativa) effect on crop” value in data set [3] is reported as 0 (Herbicidal ratio of 5% or less (almost no effect)).

(Values after patent US9708314B2, “Heterocyclic amide compound” (NISSAN CHEMICAL INDUSTRIES, LTD., priority 2013, dated 2017).)
